Test results as given in US20260248783A1 (ASCLETIS BIOSCIENCE CO., LTD., priority 2021, published 2026).
pIC50: −log10 of the molar value.

These compounds were tested against T1, PD-1/PD-L1 (Homo sapiens, UniProt Q9NZQ7) (assay: PD-1/PD-L1 Homogeneous Time-Resolved Fluorescence (HTRF) Binding Assay). Conditions: PD-1/PD-L1 HTRF activity; 3 nM PD1, 10 nM PD-L1, 25° C.
T1 construct: Recombinant human PD-L1 protein (19-238) with a Histag at the C-terminus; purchased AcroBiosystems PD1-H5229 (PD-L1); PD1-H5257 (PD-1)
Description: Example 107. PD-1/PD-L1 Homogeneous Time-Resolved Fluorescence (HTRF) Binding Assay
The assays were conducted in a standard black 384-well polystyrene plate with a final volume of 20 μL. Inhibitors were first serially diluted in DMSO and then added to the plate wells before the addition of other reaction components. The final concentration of DMSO in the assay was 1%. The assays were carried out at 25° C. in the PBS buffer (pH 7.4) with 0.05% Tween-20 and 0.1% BSA. Recombinant human PD-L1 protein (19-238) with a Histag at the C-terminus was purchased from AcroBiosystems (PD1-H5229). Recombinant human PD-1 protein (25-167) with Fe tag at the C-terminus was also purchased from AcroBiosystems (PD1-H5257). PD-L1 and PD-1 proteins were diluted in the assay buffer and 10 μL was added to the plate well. Plates were centrifuged and proteins were preincubated with inhibitors for 40 minutes. The incubation was followed by the addition of 10 μL of HTRF detection buffer supplemented with Europium cryptate-labeled anti-human IgG (PerkinElmer-AD0212) specific for Fe and anti-His antibody conjugated to SureLight®—Allophycocyanin (APC, PerkinElmer-AD0059H). After centrifugation, the plate was incubated at 25° C. for 60 min. before reading on a PHERAstar FS plate reader (665 nm/620 nm ratio). Final concentrations in the assay were […], 10 nM PD-L1, 1 nM europium anti-human IgG and 20 nM anti-His-Allophycocyanin. IC50 determination was performed by fitting the curve of percent control activity versus the log of the inhibitor concentration.

T1 sequence (Q9NZQ7 19-238): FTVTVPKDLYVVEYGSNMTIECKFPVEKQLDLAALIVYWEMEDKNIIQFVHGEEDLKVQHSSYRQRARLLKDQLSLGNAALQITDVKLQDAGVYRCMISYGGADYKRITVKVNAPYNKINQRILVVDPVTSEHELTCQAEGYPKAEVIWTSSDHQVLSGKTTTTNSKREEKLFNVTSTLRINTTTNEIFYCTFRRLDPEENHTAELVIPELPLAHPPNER

**Q.** With `Cn1c(CNCCO)cn2cc(-c3cccc(-c4cccc(-c5cc6c(=O)n(C)c(CNCCO)cn6c5)c4Cl)c3Cl)cc2c1=O` [Compound 45, 7,7′-(2,2′-dichloro-[1,1′-biphenyl]-3,3′-diyl)bis(3-(((2-hydroxyethyl)amino)methyl)-2-methylpyrrolo[1,2-a]pyrazin-1(2H)-one)] as the compound, how does the pIC50 read?
**A.** > 8.00

**Q.** `O=c1c2cc(-c3cccc(-c4cccc(-c5cc6c(=O)n(CCn7cccn7)cnn6c5)c4Cl)c3Cl)cn2ncn1CCn1cccn1` [Compound 21, 6,6′-(2,2′-dichloro-[1,1′-biphenyl]-3,3′-diyl)bis(3-(2-(1H-pyrazol-1-yl)ethyl)pyrrolo[2,1-f][1,2,4]triazin-4(3H)-one)] was tested. Which pIC50 did it give?
**A.** ≤ 7.00

**Q.** How did the pIC50 turn out when `Cc1cn2nc(-c3cccc(-c4cccc(-c5cc6c(=O)n(CCCN[C@@H](CO)C(=O)O)c(C)cn6n5)c4Cl)c3Cl)cc2c(=O)n1CCCN[C@@H](CO)C(=O)O` [Compound 70, (2S,2'S)-2,2′-((((2,2′-dichloro-[1,1′-biphenyl]-3,3′-diyl)bis(6-methyl-4-oxopyrazolo[1,5-a]pyrazine-2,5(4H)-diyl))bis(propane-3,1-diyl))bis(azanediyl))bis(3-hydroxypropanoic acid)] was run?
**A.** 7.00 to 8.00

**Q.** `CC(=O)NCCNCc1cn2cc(-c3cccc(-c4cccc(-c5cc6c(=O)[nH]c(CNCCNC(C)=O)cn6c5)c4Cl)c3Cl)cc2c(=O)[nH]1` [Compound 72, N,N′-(((((2,2′-dichloro-[1,1′-biphenyl]-3,3′-diyl)bis(1-oxo-1,2-dihydropyrrolo[1,2-a]pyrazine-7,3-diyl))bis(methylene))bis(azanediyl))bis(ethane-2,1-diyl))diacetamide] was tested. Which pIC50 did it give?
**A.** 7.00 to 8.00

**Q.** How did the pIC50 turn out when `O=c1[nH]c(C[C@@H]2CCCN2)nn2cc(-c3cccc(-c4cccc(-c5cc6c(=O)[nH]c(C[C@@H]7CCCN7)nn6c5)c4Cl)c3Cl)cc12` [Compound 75, 6′-(2,2′-dichloro-[1,1′-biphenyl]-3,3′-diyl)bis(2-(((S)-pyrrolidin-2-yl)methyl)pyrrolo[2,1-f][1,2,4]triazin-4(3H)-one)] was run?
**A.** 7.00 to 8.00

**Q.** `O=c1c2cc(-c3cccc(-c4cccc(-c5cc6c(=O)n(CCO)cnn6c5)c4Cl)c3Cl)cn2ncn1CCO` [Compound 20, 6,6′-(2,2′-dichloro-[1,1′-biphenyl]-3,3′-diyl)bis(3-(2-hydroxyethyl)pyrrolo[2,1-f][1,2,4]triazin-4(3H)-one)] was tested. Which pIC50 did it give?
**A.** ≤ 7.00

**Q.** With `Cc1cn2cc(-c3cccc(-c4cccc(-c5cc6c(=O)n(CCNCC(O)CC(=O)O)c(C)cn6c5)c4Cl)c3Cl)cc2c(=O)n1CCNCC(O)CC(=O)O` (stereo not drawn) [Compound 56, 4,4′-((((2,2′-dichloro-[1,1′-biphenyl]-3,3′-diyl)bis(3-methyl-1-oxopyrrolo[1,2-a]pyrazine-7,2(1H)-diyl))bis(ethane-2,1-diyl))bis(azanediyl))bis(3-hydroxybutanoic acid)] as the compound, how does the pIC50 read?
**A.** ≤ 7.00

**Q.** How did the pIC50 turn out when `Cc1cn2nc(-c3cccc(-c4cccc(-c5cc6c(=O)n(CCN7C[C@@H](O)CC[C@H]7C(=O)O)c(C)cn6n5)c4Cl)c3Cl)cc2c(=O)n1CCN1C[C@@H](O)CC[C@H]1C(=O)O` [Compound 84, (2S,2'S,5S,5'S)-1,1′-(((2,2′-dichloro-[1,1′-biphenyl]-3,3′-diyl)bis(6-methyl-4-oxopyrazolo[1,5-a]pyrazine-2,5(4H)-diyl))bis(ethane-2,1-diyl))bis(5-hydroxypiperidine-2-carboxylic acid)] was run?
**A.** ≤ 7.00

**Q.** How did the pIC50 turn out when `Cc1cn2nc(-c3cccc(-c4cccc(-c5cc6c(=O)n(CCN[C@H](CO)C(=O)O)c(C)cn6n5)c4Cl)c3Cl)cc2c(=O)n1CCN[C@H](CO)C(=O)O` [Compound 61, (2R,2′R)-2,2′-((((2,2′-dichloro-[1,1′-biphenyl]-3,3′-diyl)bis(6-methyl-4-oxopyrazolo[1,5-a]pyrazine-2,5(4H)-diyl))bis(ethane-2,1-diyl))bis(azanediyl))bis(3-hydroxypropanoic acid)] was run?
**A.** 7.00 to 8.00

**Q.** How did the pIC50 turn out when `Cc1cn2nc(-c3cccc(-c4cccc(-c5cc6c(=O)n(CCN7CCCC7CCO)c(C)cn6n5)c4Cl)c3Cl)cc2c(=O)n1CCN1CCCC1CCO` (stereo not drawn) [Compound 93, 2,2′-(2,2′-dichloro-[1,1′-biphenyl]-3,3′-diyl)bis(5-(2-(2-(2-hydroxyethyl)pyrrolidin-1-yl)ethyl)-6-methylpyrazolo[1,5-a]pyrazin-4(5H)-one)] was run?
**A.** 7.00 to 8.00

**Q.** “(2S,2'S,4R,4′R)-1,1′-(((2,2′-dichloro-[1,1′-biphenyl]-3,3′-diyl)bis(3-methyl-1-oxopyrrolo[1,2-a]pyrazine-7,2(1H)-diyl))bis(ethane-2,1-diyl))bis(4-hydroxypyrrolidine-2-carboxylic acid) [Compound 59]” was tested. Which pIC50 did it give?
**A.** ≤ 7.00

**Q.** How did the pIC50 turn out when `Cc1cn2cc(-c3cccc(-c4cccc(-c5cc6c(=O)n(C[C@H]7CCCN7)c(C)cn6c5)c4Cl)c3Cl)cc2c(=O)n1C[C@H]1CCCN1` [Compound 39, 7,7′-(2,2′-dichloro-[1,1′-biphenyl]-3,3′-diyl)bis(3-methyl-2-(((R)-pyrrolidin-2-yl)methyl)pyrrolo[1,2-a]pyrazin-1(2H)-one)] was run?
**A.** 7.00 to 8.00

**Q.** `Cc1nn2cc(-c3cccc(-c4cccc(-c5cc6c(=O)n(C[C@@H]7CCC(=O)N7)c(C)nn6c5)c4Cl)c3Cl)cc2c(=O)n1C[C@@H]1CCC(=O)N1` [Compound 35, 6,6′-(2,2′-dichloro-[1,1′-biphenyl]-3,3′-diyl)bis(2-methyl-3-(((S)-5-oxopyrrolidin-2-yl)methyl)pyrrolo[2,1-f][1,2,4]triazin-4(3H)-one)] was tested. Which pIC50 did it give?
**A.** > 8.00

**Q.** `Cc1cn2nc(-c3cccc(-c4cccc(-c5cc6c(=O)n(CC(C)N[C@@H](CO)C(=O)O)c(C)cn6n5)c4Cl)c3Cl)cc2c(=O)n1CC(C)N[C@@H](CO)C(=O)O` (stereo partly drawn) [Compound 87, (2S,2'S)-2,2′-((((2,2′-dichloro-[1,1′-biphenyl]-3,3′-diyl)bis(6-methyl-4-oxopyrazolo[1,5-a]pyrazine-2,5(4H)-diyl))bis(propane-1,2-diyl))bis(azanediyl))bis(3-hydroxypropanoic acid)] was tested. Which pIC50 did it give?
**A.** ≤ 7.00

**Q.** How did the pIC50 turn out when `Cn1c(CCN[C@@H](CO)C(=O)O)cn2nc(-c3cccc(-c4cccc(-c5cc6c(=O)n(C)c(CCN[C@@H](CO)C(=O)O)cn6n5)c4Cl)c3Cl)cc2c1=O` [Compound 71, (2S,2'S)-2,2′-((((2,2′-dichloro-[1,1′-biphenyl]-3,3′-diyl)bis(5-methyl-4-oxo-4,5-dihydropyrazolo[1,5-a]pyrazine-2,6-diyl))bis(ethane-2,1-diyl))bis(azanediyl))bis(3-hydroxypropanoic acid)] was run?
**A.** > 8.00

**Q.** How did the pIC50 turn out when `Cc1cn2nc(-c3cccc(-c4cccc(-c5cc6c(=O)n(C[C@H]7CCNC7)c(C)cn6n5)c4Cl)c3Cl)cc2c(=O)n1C[C@H]1CCNC1` [Compound 81, 2,2′-(2,2′-dichloro-[1,1′-biphenyl]-3,3′-diyl)bis(6-methyl-5-(((S)-pyrrolidin-3-yl)methyl)pyrazolo[1,5-a]pyrazin-4(5H)-one)] was run?
**A.** 7.00 to 8.00

**Q.** With `CC(=O)NCCNCc1cn2cc(-c3cccc(-c4cccc(-c5cc6c(=O)n(C)c(CNCCNC(C)=O)cn6c5)c4Cl)c3Cl)cc2c(=O)n1C` [Compound 44, N,N′-(((((2,2′-dichloro-[1,1′-biphenyl]-3,3′-diyl)bis(2-methyl-1-oxo-1,2-dihydropyrrolo[1,2-a]pyrazine-7,3-diyl))bis(methylene))bis(azanediyl))bis(ethane-2,1-diyl))diacetamide] as the compound, how does the pIC50 read?
**A.** 7.00 to 8.00

**Q.** `O=C(O)Cn1cnn2cc(-c3cccc(-c4cccc(-c5cc6c(=O)n(CC(=O)O)cnn6c5)c4Cl)c3Cl)cc2c1=O` [Compound 23, 2,2′-((2,2′-dichloro-[1,1′-biphenyl]-3,3′-diyl)bis(4-oxopyrrolo[2,1-f][1,2,4]triazine-6,3(4H)-diyl))diacetic acid] was tested. Which pIC50 did it give?
**A.** ≤ 7.00
